Target: T1, Thromboxane synthase (Homo sapiens, UniProt P24557)
T1 construct: Human Platelet Thromboxane Synthase Assay; from tissue; host or cells: human platelets
T1 sequence (P24557 1-533): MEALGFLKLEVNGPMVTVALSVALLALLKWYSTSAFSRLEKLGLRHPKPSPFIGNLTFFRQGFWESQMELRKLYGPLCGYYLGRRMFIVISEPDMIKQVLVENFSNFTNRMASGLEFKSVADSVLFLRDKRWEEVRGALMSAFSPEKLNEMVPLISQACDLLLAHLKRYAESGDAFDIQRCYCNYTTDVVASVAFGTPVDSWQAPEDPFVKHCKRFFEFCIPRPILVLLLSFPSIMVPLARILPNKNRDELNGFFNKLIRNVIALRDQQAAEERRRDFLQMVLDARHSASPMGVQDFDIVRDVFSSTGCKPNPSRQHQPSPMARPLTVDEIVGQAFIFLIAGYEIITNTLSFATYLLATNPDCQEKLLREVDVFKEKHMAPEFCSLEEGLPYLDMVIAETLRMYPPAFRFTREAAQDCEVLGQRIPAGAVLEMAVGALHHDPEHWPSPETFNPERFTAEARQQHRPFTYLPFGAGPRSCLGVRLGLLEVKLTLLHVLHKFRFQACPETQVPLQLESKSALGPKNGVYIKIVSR
Assay: Human platelet thromboxane synthase assay
Type: biochemical
Conditions: 10 μM
Procedure: The compounds were tested for thromboxane synthase inhibition essentially as described by Borsch-Haubold A G, Pasquet S, Watson S P. (1998) Direct inhibition of cyclooxygenase-1 and -2 by the kinase inhibitors SB 203580 and PD 98059. […] 1. Imidazole derivatives. J Med. Chem. (10):1139-48 according to the following:
Pre-incubation time, temp: 15 minutes at 25° C. Incubation time, temp: 3 minutes at 25° C.
Incubation Buffer: 10 mM Tris-HCl, pH 7.4
Quantification Method: EIA quantification of TxB2

Compound: O=C(O)CC/C=C\C[C@@H]1CO[C@H](c2ccccc2Cl)O[C@@H]1c1ccccc1O [Compound C, (Z)-6-((2S,4S,5R)-2-(2-chlorophenyl)-4-(2-hydroxyphenyl)-1,3-dioxan-5-yl)hex-4-enoic acid]
- Thromboxane synthase Human platelet Inhibition (%): 61%
- inhibition at 10 µM: 43%

From patent US20120142766A1, “SUBSTITUTED 1,3-DIOXANES AND THEIR USES” (EVOLVA SA, priority 2007, published 2012)
